The source of these data is ChEMBL document CHEMBL5247625, “Discovery and characterization of novel potent BCR-ABL degraders by conjugating allosteric inhibitor” (Eur J Med Chem, 2022).

Molecules are shown by their SMILES. Activity calls are given as the source filed them. No cut-off for these calls is given here.

For data set [1], the system named is Protein cereblon/Tyrosine-protein kinase ABL1/Breakpoint cluster region protein (Mus musculus), P00519+P11274+Q8C7D2 [Y253H/E255V]. Put plainly: Protac activity at CRBN/BCR-ABL Y253H/E255V double mutant in mouse 32D cells assessed as increase in p-BCR-ABL degradation at 1 to 1000 nM by Western blotting analysis. The data set is classed as cell-based. The conditions noted are these: dose 1-1000 nM.

Data set [2] concerns the target T1, Protein cereblon/Tyrosine-protein kinase ABL1/Breakpoint cluster region protein (Homo sapiens, UniProt P00519+P11274+Q96SW2). Description: Protac activity at CRBN/BCR-ABL in human K562 cells assessed as increase in BCR-ABL degradation at 5 nM by Western blotting analysis. The data set is classed as cell-based. (In general: In western blotting, separated proteins are transferred to a membrane and probed.)

Data set [3] deals with T1, Protein cereblon/Tyrosine-protein kinase ABL1/Breakpoint cluster region protein. Description: Protac activity at CRBN/BCR-ABL in human K562 cells assessed as increase in BCR-ABL degradation at 100 nM incubated for 6 hrs followed by compound washout measured upto 96 hrs by Western blotting analysis. The data set is classed as cell-based.
Data set [4] concerns Protein cereblon/Tyrosine-protein kinase ABL1/Breakpoint cluster region protein (Mus musculus), P00519+P11274+Q8C7D2 [F359V]. Description: Protac activity at CRBN/asciminib resistance BCR-ABL F359V mutant in mouse 32D cells assessed as increase in BCR-ABL degradation at 1 to 1000 nM by Western blotting analysis. The data set is classed as cell-based. The note with it: dose 1-1000 nM.

The subject of data set [5] is Protein cereblon/Tyrosine-protein kinase ABL1/Breakpoint cluster region protein (Mus musculus), P00519+P11274+Q8C7D2 [V468F]. Description: Protac activity at CRBN/BCR-ABL V468F mutant in mouse 32D cells assessed as increase in BCR-ABL degradation at 1 to 1000 nM by Western blotting analysis. The format is cell-based. The conditions noted are these: dose 1-1000 nM.
The target of data set [6] is Crk-like protein (Homo sapiens) (UniProt P46109). Description: Inhibition of CRKL phosphorylation at Tyr207 residue in human K562 cells at 100 nM incubated for 6 hrs followed by compound washout measured upto 96 hrs by Western blotting analysis. The data set is classed as cell-based.
The target of data set [7] is T2, Bcr/Abl fusion protein (Homo sapiens) (UniProt P00519+P11274). Description: Inhibition of BCR-ABL phosphorylation at Tyr245 residue in human K562 cells at 100 nM incubated for 6 hrs followed by compound washout measured upto 96 hrs by Western blotting analysis. The format is cell-based.
In data set [8] the test system is K562. Description: Down regulation of […] expression in human K562 cells at 100 nM measured after 16 hrs by LC-MS analysis. The data set is classed as functional, cell-based.
Data set [9] has as its system K562. Description: Induction of cell death in human K562 cells assessed as inhibition of cell growth at 100 nM incubated for 6 hrs followed by compound washout measured upto 96 hrs. The data set is classed as functional, cell-based.
Data set [10] relates to Protein cereblon/Tyrosine-protein kinase ABL1/Breakpoint cluster region protein (Mus musculus), P00519+P11274+Q8C7D2 [P223S]. Put plainly: Protac activity at CRBN/asciminib resistance BCR-ABL P223S mutant in mouse 32D cells assessed as increase in BCR-ABL degradation at 1 to 1000 nM by Western blotting analysis. The data set is classed as cell-based. The note with it: dose 1-1000 nM.

Data set [11] deals with K562. Put plainly: Cytotoxicity against human K562 cells assessed as inhibition of cell growth at 100 nM incubated for 6 hrs followed by compound washout measured upto 96 hrs. The data set is classed as functional, cell-based.
The target in data set [12] is T1, Protein cereblon/Tyrosine-protein kinase ABL1/Breakpoint cluster region protein. Put plainly: Protac activity at CRBN/BCR-ABL in human K562 cells assessed as induction of BCR-ABL degradation at 100 nM pretreated with lenalidomide for 2 hrs followed by compound addition measured after 8 hrs by Western blotting analysis. The data set is classed as cell-based. The note with it: time 10.0 hrs.

Data set [13] has the same target. Put plainly: Protac activity at CRBN/BCR-ABL in human K562 cells assessed as increase in BCR-ABL degradation at 0.3 to 100 nM incubated for 16 hrs by Western blotting analysis relative to control. The data set is classed as cell-based. The note with it: dose 0.3-100 nM.
Data set [14] relates to U-937. Put plainly: Antiproliferative activity against human U-937 cells assessed as inhibition of cell growth incubated for 2 days by CCK8 assay. The note with it: time 2.0 day. The format is functional, cell-based. On the technique in general: Formazan colour is commonly taken as a measure of viable cells.
Data set [15] is described as follows: Apparent permeability in human Caco-2 cells incubated for 120 mins by LC-MS/MS analysis. The format is ADME, cell-based. The conditions noted are these: caco-2, 2 h.
Data set [16] deals with T1, Protein cereblon/Tyrosine-protein kinase ABL1/Breakpoint cluster region protein. Description: Protac activity at CRBN/BCR-ABL in human K562 cells assessed as induction of BCR-ABL degradation at 100 nM pretreated with MG132 for 2 hrs followed by compound addition measured after 8 hrs by Western blotting analysis. The data set is classed as cell-based. The conditions noted are these: time 10.0 hrs.

The target is the same in data set [17]. Description: Protac activity at CRBN/BCR-ABL in human K562 cells assessed as induction of c-ABL degradation at 100 nM pretreated with MLN4924 for 2 hrs followed by compound addition measured after 8 hrs by Western blotting analysis. The data set is classed as cell-based. The conditions noted are these: time 10.0 hrs.
The subject of data set [18] is K562. Description: Down regulation of ZFP91 expression in human K562 cells at 100 nM measured after 16 hrs by LC-MS analysis. The data set is classed as functional, cell-based.
Data set [19] concerns Protein cereblon/Tyrosine-protein kinase ABL1/Breakpoint cluster region protein (Mus musculus), P00520+Q6PAJ1+Q8C7D2 [E255V]. Description: Protac activity at CRBN/BCR-ABL E255V mutant in mouse 32D cells assessed as increase in BCR-ABL degradation at 1 to 1000 nM by Western blotting analysis. The data set is classed as cell-based. The conditions noted are these: dose 1-1000 nM.

The target in data set [20] is T2, Bcr/Abl fusion protein (Homo sapiens). Put plainly: Inhibition of BCR-ABL phosphorylation at Tyr245 residue in human K562 cells at 100 nM by Western blotting analysis. The data set is classed as cell-based. The conditions noted are these: time <= 18.0 hrs, TDE = time-dependent effect.
For data set [21], the target named is Crk-like protein (Homo sapiens) (UniProt P46109). Description: Inhibition of CRKL phosphorylation at Tyr207 residue in human K562 cells at 100 nM by Western blotting analysis. The format is cell-based. The note with it: time <= 18.0 hrs, TDE = time-dependent effect.
The target in data set [22] is T1, Protein cereblon/Tyrosine-protein kinase ABL1/Breakpoint cluster region protein. Description: Protac activity at CRBN/BCR-ABL in human K562 cells assessed as BCR-ABL turnover rate in presence of cycloheximide by Western blotting analysis. The data set is classed as cell-based.

T1 sequence (P00519 whole entry, looked up): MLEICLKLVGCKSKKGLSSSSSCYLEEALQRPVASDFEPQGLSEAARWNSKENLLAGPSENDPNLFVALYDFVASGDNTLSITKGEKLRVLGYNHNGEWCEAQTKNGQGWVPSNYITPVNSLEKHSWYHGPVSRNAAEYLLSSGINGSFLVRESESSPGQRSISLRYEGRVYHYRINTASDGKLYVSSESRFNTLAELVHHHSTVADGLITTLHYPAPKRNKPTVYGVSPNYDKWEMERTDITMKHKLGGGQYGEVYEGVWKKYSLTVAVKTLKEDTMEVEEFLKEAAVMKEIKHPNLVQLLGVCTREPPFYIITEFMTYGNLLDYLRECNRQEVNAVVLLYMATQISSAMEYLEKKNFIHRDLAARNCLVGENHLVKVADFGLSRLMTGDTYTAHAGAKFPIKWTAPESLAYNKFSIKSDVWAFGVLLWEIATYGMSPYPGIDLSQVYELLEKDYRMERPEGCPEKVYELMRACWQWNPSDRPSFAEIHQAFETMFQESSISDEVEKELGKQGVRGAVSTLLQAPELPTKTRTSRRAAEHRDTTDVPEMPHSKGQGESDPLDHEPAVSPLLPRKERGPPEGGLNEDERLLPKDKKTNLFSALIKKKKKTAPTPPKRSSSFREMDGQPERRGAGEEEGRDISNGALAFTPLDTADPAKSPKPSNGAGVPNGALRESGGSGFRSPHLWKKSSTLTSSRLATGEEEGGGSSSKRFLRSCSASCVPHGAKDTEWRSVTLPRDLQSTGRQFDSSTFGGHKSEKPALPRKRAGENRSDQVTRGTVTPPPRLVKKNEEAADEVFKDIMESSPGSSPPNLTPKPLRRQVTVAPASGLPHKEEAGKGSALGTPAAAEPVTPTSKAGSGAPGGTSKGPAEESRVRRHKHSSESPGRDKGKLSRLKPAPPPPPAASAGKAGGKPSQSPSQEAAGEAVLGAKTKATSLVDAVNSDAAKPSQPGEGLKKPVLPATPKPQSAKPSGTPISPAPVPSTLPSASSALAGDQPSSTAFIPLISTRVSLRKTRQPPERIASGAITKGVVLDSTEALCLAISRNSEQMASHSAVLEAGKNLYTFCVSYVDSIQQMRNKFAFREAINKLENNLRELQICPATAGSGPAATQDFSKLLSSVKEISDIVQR
T1 sequence (P11274 whole entry, looked up): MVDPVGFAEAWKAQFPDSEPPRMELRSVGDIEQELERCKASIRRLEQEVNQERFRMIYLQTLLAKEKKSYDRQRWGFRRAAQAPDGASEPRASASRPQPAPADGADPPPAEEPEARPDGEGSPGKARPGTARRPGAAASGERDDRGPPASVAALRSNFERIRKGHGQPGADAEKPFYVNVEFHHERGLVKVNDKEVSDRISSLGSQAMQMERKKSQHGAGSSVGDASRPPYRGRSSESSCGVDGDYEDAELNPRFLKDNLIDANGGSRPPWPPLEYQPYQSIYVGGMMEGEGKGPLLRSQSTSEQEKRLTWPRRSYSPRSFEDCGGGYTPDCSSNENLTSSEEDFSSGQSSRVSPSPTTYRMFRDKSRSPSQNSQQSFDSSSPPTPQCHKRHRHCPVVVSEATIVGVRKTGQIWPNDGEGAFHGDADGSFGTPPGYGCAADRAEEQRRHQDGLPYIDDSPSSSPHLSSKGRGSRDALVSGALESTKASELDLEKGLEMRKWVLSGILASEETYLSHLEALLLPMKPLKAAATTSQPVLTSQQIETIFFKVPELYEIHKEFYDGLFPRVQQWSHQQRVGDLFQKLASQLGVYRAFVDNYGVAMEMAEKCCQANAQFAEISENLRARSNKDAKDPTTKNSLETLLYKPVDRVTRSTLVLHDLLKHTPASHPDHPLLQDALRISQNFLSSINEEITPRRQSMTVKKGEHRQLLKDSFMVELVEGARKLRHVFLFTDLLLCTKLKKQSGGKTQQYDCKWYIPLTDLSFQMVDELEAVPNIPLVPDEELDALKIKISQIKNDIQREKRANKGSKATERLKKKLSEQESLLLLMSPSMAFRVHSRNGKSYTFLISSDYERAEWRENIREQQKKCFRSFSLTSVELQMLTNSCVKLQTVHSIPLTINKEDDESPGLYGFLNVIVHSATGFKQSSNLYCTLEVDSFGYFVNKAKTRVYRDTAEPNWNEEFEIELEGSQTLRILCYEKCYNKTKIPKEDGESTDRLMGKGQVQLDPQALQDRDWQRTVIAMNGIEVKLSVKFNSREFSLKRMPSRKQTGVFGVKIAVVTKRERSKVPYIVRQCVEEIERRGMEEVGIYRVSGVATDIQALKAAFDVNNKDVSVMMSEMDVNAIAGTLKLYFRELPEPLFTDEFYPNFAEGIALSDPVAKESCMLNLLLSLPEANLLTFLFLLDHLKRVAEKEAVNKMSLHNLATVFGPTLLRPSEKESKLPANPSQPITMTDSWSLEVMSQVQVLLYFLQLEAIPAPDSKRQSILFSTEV
T1 sequence (Q96SW2 whole entry, looked up): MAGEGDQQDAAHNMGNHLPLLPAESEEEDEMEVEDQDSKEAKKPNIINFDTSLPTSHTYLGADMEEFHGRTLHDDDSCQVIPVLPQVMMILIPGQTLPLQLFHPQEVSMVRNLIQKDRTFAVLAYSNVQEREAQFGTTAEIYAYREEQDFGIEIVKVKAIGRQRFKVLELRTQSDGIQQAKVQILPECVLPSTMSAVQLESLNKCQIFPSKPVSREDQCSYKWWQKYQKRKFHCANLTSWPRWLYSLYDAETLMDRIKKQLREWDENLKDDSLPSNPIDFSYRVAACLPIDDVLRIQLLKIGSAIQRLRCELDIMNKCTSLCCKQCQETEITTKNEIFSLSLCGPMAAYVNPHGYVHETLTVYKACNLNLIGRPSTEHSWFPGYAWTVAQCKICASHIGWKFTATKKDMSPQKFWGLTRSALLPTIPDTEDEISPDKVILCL
Crk-like protein (Homo sapiens), sequence (P46109 whole entry, the tested form may be a part): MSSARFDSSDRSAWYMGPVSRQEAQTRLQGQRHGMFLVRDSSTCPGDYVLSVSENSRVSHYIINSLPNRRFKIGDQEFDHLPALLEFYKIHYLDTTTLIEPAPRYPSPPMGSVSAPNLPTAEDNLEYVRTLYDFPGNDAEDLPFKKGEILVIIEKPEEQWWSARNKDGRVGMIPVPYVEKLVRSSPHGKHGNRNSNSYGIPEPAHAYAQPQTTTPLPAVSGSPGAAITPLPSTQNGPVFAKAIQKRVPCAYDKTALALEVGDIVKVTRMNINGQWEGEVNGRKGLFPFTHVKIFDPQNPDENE
T2 sequence (P00519 whole entry, looked up, the tested form may be a part): as the sequence (P00519 whole entry, looked up) above
T2 sequence (P11274 whole entry, looked up, the tested form may be a part): as the sequence (P11274 whole entry, looked up) above

The term Emax denotes the greatest response seen or fitted, relative to the assay's reference. Take `O=C1CCC(N2Cc3c(SCCCCCCN4CCN(C5CCN(c6ncc(C(=O)Nc7ccc(OC(F)(F)Cl)cc7)cc6-c6ccn[nH]6)CC5)CC4)cccc3C2=O)C(=O)N1` (configuration not stated): the outcome in [1], in data set [4], in [8], in data set [9], in data set [10] and in data set [11] was Active. The outcome in data set [18], in [19] and in data set [22] was Active. The Activity in data set [2] came out at 81.8%. The outcome in data set [3], in data set [5], in data set [12], in [14], in data set [16] and in [17] was inactive. Besides, the inhibition entry in data set [6] and in data set [7] was “inactive” in each case. The Emax in data set [13] worked out at 91.2%. Also, the Papp entry in data set [15] is listed as “Impermeable”. Besides, the inhibition entry in [20] and in data set [21] was “Tde” each time.
